Source: US12616701B2, “Solid state forms of Resmetirom” (ASSIA CHEMICAL INDUSTRIES LTD., priority 2020, dated 2026)
Structures can show the parent of a compound that is named as a salt.

What was measured:
[1] = Hygroscopicity of the crystalline form; type: physicochemical; settings: crystalline solid form
[2] = Polymorphic stability at relative humidity, room temperature; type: physicochemical; settings: for at least 7 days

Structure (SMILES)	hygroscopicity [1]	relative humidity up to which the form is polymorphically stable [2]
CC(C)c1cc(Oc2c(Cl)cc(-n3nc(C#N)c(=O)[nH]c3=O)cc2Cl)n[nH]c1=O [Form R3-A, Resmetirom:L-proline]	non-hygroscopic	up to 80 % relative humidity
CC(C)c1cc(Oc2c(Cl)cc(-n3nc(C#N)c(=O)[nH]c3=O)cc2Cl)n[nH]c1=O [Form RC2-A, Resmetirom:caffeine]	non-hygroscopic	up to 100 % relative humidity
CC(C)c1cc(Oc2c(Cl)cc(-n3nc(C#N)c(=O)[nH]c3=O)cc2Cl)n[nH]c1=O [Form RC2-B, Resmetirom:caffeine]	non-hygroscopic	up to 80 % relative humidity

Second part, the molecule after the results:

hygroscopicity [1]	relative humidity up to which the form is polymorphically stable [2]	Structure (SMILES)
non-hygroscopic	up to 80 % relative humidity	CC(C)c1cc(Oc2c(Cl)cc(-n3nc(C#N)c(=O)[nH]c3=O)cc2Cl)n[nH]c1=O [Form 20, 2-[3,5-dichloro-4-[(6-oxo-5-propan-2-yl-1H-pyridazin-3-yl)oxy]phenyl]-3,5-dioxo-1,2,4-triazine-6-carbonitrile]
non-hygroscopic	up to 100 % relative humidity	CC(C)c1cc(Oc2c(Cl)cc(-n3nc(C#N)c(=O)[nH]c3=O)cc2Cl)n[nH]c1=O [Form R2-A, Resmetirom piperazine salt]
non-hygroscopic	up to 80 % relative humidity	CC(C)c1cc(Oc2c(Cl)cc(-n3nc(C#N)c(=O)[nH]c3=O)cc2Cl)n[nH]c1=O [Form RC1-A, Resmetirom:nicotinamide]
